From patent publication US20250332266A1, “COMPOUNDS FOR THE DEGRADATION OF EGFR KINASE” (BeiGene Switzerland GmbH, priority 2022, published 2025)

Key:
[1] = biological target: EGFR Del19/T790M/C797S (H1975-clone #28) (Homo sapiens, UniProt P00533, T790M/C797S, form not given); experiment: EGFR degradation, HTRF total-EGFR assay, H1975-clone #28 (DTC); type: cell-based; conditions: H1975-clone #28 Del19/T790M/C797S, 16 h treatment
Summary of the method: (§1)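 H1975 clones with endogenous EGFR knocked out and homozygous exogenous EGFR mutants (#28 Del19/T790M/C797S; #25 L858R/T790M/C797S) treated 16 h at 37 °C, 8 doses, 5-fold from 10 μM, 0.2% DMSO. Total EGFR measured by HTRF on lysates, normalised to DMSO controls; DC50 and Dmax from curve fit.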

[2] = biological target: T1, EGFR L858R/T790M/C797S (H1975-clone #25) (Homo sapiens, UniProt P00533, C797S/L858R/T790M); experiment: EGFR degradation, HTRF total-EGFR assay, H1975-clone #25 (LTC); type: cell-based; conditions: H1975-clone #25 L858R/T790M/C797S, 16 h treatment
T1 construct: expressed in transfected cells; host or cells: H1975 (clone #25), lentiviral transduction, endogenous EGFR knocked out
T1 sequence (P00533 25-1210 T790M/C797S/L858R): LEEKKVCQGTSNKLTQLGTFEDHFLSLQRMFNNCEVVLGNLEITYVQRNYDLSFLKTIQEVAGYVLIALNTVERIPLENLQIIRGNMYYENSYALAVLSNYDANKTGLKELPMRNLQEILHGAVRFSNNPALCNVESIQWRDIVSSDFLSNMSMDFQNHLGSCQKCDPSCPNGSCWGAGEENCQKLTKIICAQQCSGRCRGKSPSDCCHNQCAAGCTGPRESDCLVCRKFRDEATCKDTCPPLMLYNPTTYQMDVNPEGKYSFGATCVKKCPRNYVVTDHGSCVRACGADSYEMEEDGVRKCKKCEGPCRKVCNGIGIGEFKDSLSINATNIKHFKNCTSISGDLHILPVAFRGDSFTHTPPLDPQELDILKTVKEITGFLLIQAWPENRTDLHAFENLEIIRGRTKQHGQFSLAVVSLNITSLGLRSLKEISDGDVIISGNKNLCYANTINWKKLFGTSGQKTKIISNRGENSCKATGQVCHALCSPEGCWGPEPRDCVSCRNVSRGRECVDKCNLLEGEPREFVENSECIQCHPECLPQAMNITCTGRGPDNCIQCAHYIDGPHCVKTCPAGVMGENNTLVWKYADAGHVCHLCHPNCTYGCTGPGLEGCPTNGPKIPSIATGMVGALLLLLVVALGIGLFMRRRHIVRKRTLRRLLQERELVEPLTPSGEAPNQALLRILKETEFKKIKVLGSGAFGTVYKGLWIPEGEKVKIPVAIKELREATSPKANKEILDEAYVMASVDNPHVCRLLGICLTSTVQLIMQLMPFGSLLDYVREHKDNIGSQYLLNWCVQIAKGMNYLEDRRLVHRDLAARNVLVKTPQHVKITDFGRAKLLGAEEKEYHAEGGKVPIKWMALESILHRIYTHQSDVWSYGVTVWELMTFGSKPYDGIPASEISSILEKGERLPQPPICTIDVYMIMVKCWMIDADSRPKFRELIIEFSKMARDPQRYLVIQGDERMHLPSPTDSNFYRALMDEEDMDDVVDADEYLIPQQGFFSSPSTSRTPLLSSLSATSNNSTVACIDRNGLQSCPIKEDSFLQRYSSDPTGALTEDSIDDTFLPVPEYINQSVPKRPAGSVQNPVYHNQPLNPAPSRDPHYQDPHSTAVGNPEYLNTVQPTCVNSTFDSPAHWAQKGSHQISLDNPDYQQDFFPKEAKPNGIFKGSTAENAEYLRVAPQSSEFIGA
Summary of the method: as §1

Sequence of EGFR Del19/T790M/C797S (H1975-clone #28) (P00533 with tags, fused parts or gaps DEL746-750/T790M/C797S, form open): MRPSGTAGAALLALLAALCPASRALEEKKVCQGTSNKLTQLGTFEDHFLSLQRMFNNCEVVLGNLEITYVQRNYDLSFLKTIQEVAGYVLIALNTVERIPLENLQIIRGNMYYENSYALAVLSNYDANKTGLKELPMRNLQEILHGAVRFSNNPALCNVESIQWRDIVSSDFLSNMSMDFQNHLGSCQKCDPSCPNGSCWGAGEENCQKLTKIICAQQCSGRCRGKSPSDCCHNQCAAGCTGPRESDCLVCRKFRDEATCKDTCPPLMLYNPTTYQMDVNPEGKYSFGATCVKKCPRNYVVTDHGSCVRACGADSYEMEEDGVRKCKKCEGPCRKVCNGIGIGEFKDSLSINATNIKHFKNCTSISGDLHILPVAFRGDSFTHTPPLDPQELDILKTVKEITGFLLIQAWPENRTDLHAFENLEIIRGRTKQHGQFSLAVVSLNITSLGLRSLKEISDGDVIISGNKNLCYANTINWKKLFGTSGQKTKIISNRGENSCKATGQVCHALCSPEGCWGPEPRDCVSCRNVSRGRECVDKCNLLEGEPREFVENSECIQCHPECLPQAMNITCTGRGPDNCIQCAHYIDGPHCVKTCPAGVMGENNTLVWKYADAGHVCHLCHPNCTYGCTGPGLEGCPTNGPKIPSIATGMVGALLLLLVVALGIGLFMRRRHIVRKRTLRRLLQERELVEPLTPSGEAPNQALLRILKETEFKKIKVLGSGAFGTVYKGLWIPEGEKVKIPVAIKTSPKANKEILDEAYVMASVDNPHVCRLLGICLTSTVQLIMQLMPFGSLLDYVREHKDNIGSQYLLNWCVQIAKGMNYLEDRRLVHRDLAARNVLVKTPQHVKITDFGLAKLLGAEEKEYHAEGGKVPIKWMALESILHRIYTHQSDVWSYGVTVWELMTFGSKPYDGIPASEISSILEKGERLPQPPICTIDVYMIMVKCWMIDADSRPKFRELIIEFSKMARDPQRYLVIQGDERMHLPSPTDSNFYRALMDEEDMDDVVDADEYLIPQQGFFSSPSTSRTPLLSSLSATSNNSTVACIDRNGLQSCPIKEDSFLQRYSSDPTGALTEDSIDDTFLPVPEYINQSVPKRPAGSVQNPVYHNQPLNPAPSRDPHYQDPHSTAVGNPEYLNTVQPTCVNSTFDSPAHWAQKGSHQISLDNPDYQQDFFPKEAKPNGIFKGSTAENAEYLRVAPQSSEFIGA

Degradation H1975 # 28 DTC [1]	Degradation H1975 # 25-LTC [2]	SMILES
91.5	94.0	Cc1cc2cc(n1)-c1cnn(C)c1OC[C@H]1C[C@@H](CN3/C(=N/C2=O)Nc2ccc(N4CCN(C5CCN(c6ccc(C7CCC(=O)NC7=O)nc6C)CC5)CC4)cc23)C1 (some centres unmarked) [Example 21, 3-(5-(4-(4-((7^1s,7^3s,E)-1^1,2^6-dimethyl-3-oxo-5^2,5^3-dihydro-1H,5^1H-9-oxa-4-aza-5(2,1)-benzo[d]imidazola-2(2,4)-pyridina-1(4,5)-pyrazola-7(1,3)-cyclobutanacyclononaphane-5^6-yl)piperazin-1-yl)piperidin-1-yl)-6-methylpyridin-2-yl)piperidine-2,6-dione]
73.2	72.7	Cc1cc2cc(n1)-c1cnn(C)c1OC[C@H]1C[C@@H](CN3/C(=N/C2=O)Nc2ccc(N4CCC5(CCN(C6CCN(c7cc(F)c([C@H]8CCC(=O)NC8=O)c(F)c7)CC6)C5)C4)cc23)C1 (stereo partly drawn) [Example 129, (3R)-3-(4-(4-(7-((7^1s,7^3s,E)-1^1,2^6-dimethyl-3-oxo-5^2,5^3-dihydro-1^1H,5^1H-9-oxa-4-aza-5(2,1)-benzo[d]imidazola-2(2,4)-pyridina-1(4,5)-pyrazola-7(1,3)-cyclobutanacyclononaphane-5^6-yl)-2,7-diazaspiro[4.4]nonan-2-yl)piperidin-1-yl)-2,6-difluorophenyl)piperidine-2,6-dione]
89.1	91.5	Cc1cc2cc(n1)-c1cnn(C)c1OC[C@H]1C[C@@H](CN3/C(=N/C2=O)Nc2ccc(N4CCN([C@@H]5CCN(c6ccc(C7CCC(=O)NC7=O)nc6C)C[C@@H]5F)CC4)cc23)C1 (stereo partly drawn) [Example 62, 3-(5-((3S,4R)-4-(4-((7^1s,7^3S,E)-1^1,2^6-dimethyl-3-oxo-5^2,5^3-dihydro-1^1H,5^1H-9-oxa-4-aza-5(2,1)-benzo[d]imidazola-2(2,4)-pyridina-1(4,5)-pyrazola-7(1,3)-cyclobutanacyclononaphane-5^6-yl)piperazin-1-yl)-3-fluoropiperidin-1-yl)-6-methylpyridin-2-yl)piperidine-2,6-dione]
82.1	75.9	Cc1cc2cc(n1)-c1cnn(C)c1OC[C@H]1C[C@@H](CN3/C(=N/C2=O)Nc2ccc(N4CCN([C@@H]5CCN(c6cc(F)c([C@H]7CCC(=O)NC7=O)c(F)c6)C[C@@H]5F)CC4)cc23)C1 [Example 66, (R)-3-(4-((3S,4R)-4-(4-((7^1s,7^3S,E)-1^1,2^6-dimethyl-3-oxo-5^2,5^3-dihydro-1^1H,5^1H-9-oxa-4-aza-5(2,1)-benzo[d]imidazola-2(2,4)-pyridina-1(4,5)-pyrazola-7(1,3)-cyclobutanacyclononaphane-5^6-yl)piperazin-1-yl)-3-fluoropiperidin-1-yl)-2,6-difluorophenyl)piperidine-2,6-dione]
84.6	86.6	Cc1cc2cc(n1)-c1cnn(C)c1OC[C@H]1C[C@@H](CN3/C(=N/C2=O)Nc2ccc(CN4CCN(C(=O)C5CN(c6cc(F)c([C@H]7CCC(=O)NC7=O)c(F)c6)CC5(C)C)CC4)cc23)C1 (stereo partly drawn) [Example 4, (R)-3-(4-((S)-4-(4-(((7^1s,7^3R,E)-1^1,2^6-dimethyl-3-oxo-5^2,5^3-dihydro-1^1H,5^1H-9-oxa-4-aza-5(2,1)-benzo[d]imidazola-2(2,4)-pyridina-1(4,5)-pyrazola-7(1,3)-cyclobutanacyclononaphane-5^6-yl)methyl)piperazine-1-carbonyl)-3,3-dimethylpyrrolidin-1-yl)-2,6-difluorophenyl)piperidine-2,6-dione]
89.5	91.7	Cc1cc2cc(n1)-c1cnn(C)c1OC[C@H]1C[C@@H](CN3/C(=N/C2=O)Nc2ccc(N4CCN(C5CCN(c6ccc(C7CCC(=O)NC7=O)nc6C)CC5)CC4=O)cc23)C1 (some centres unmarked) [Example 22, 3-(5-(4-(4-((7^1s,7^3s,E)-1^1,2^6-dimethyl-3-oxo-5^2,5^3-dihydro-1^1H,5^1H-9-oxa-4-aza-5(2,1)-benzo[d]imidazola-2(2,4)-pyridina-1(4,5)-pyrazola-7(1,3)-cyclobutanacyclononaphane-5^6-yl)-3-oxopiperazin-1-yl)piperidin-1-yl)-6-methylpyridin-2-yl)piperidine-2,6-dione]
79.8	92.1	Cc1cc2cc(n1)-c1cnn(C)c1OC[C@H]1C[C@@H](CN3/C(=N/C2=O)Nc2ccc(N4CCC(N5CCN(c6ccc(C7CCC(=O)NC7=O)nc6C)CC5)CC4)cc23)C1 (some centres unmarked) [Example 28, 3-(5-(4-(1-((7^1s,7^3s,E)-1^1,2^6-dimethyl-3-oxo-5^2,5^3-dihydro-1^1H,5^1H-9-oxa-4-aza-5(2,1)-benzo[d]imidazola-2(2,4)-pyridina-1(4,5)-pyrazola-7(1,3)-cyclobutanacyclononaphane-5^6-yl)piperidin-4-yl)piperazin-1-yl)-6-methylpyridin-2-yl)piperidine-2,6-dione]
80.2	77.3	Cc1cc2cc(n1)-c1cnn(C)c1OC[C@H]1C[C@@H](CN3/C(=N/C2=O)Nc2ccc(N4CCN(C5CN(C6CCN(c7cc(F)c([C@H]8CCC(=O)NC8=O)c(F)c7)CC6)C5)CC4)cc23)C1 [Example 137, (R)-3-(4-(4-(3-(4-((7^1s,7^3s,E)-1^1,2^6-dimethyl-3-oxo-5^2,5^3-dihydro-1^1H,5^1H-9-oxa-4-aza-5(2,1)-benzo[d]imidazola-2(2,4)-pyridina-1(4,5)-pyrazola-7(1,3)-cyclobutanacyclononaphane-5^6-yl)piperazin-1-yl)azetidin-1-yl)piperidin-1-yl)-2,6-difluorophenyl)piperidine-2,6-dione]
85.3	79.0	Cc1cc2cc(n1)-c1cnn(C)c1OC[C@H]1C[C@@H](CN3/C(=N/C2=O)Nc2ccc(N4CCN(C5CCN(c6ccc(C7CCC(=O)NC7=O)nc6)CC5)CC4=O)cc23)C1 (some centres unmarked) [Example 12, 3-(5-(4-(4-((7^1s,7^3s,E)-1^1,2^6-dimethyl-3-oxo-5^2,5^3-dihydro-1^1H,5^1H-9-oxa-4-aza-5(2,1)-benzo[d]imidazola-2(2,4)-pyridina-1(4,5)-pyrazola-7(1,3)-cyclobutanacyclononaphane-5^6-yl)-3-oxopiperazin-1-yl)piperidin-1-yl)pyridin-2-yl)piperidine-2,6-dione]
75.7	78.4	Cc1cc2cc(n1)-c1cnn(C)c1OC[C@H]1C[C@@H](CN3/C(=N/C2=O)Nc2ccc(N4CC5(C4)CN(C4CCN(c6ccc(C7CCC(=O)NC7=O)nc6C)CC4)C5)cc23)C1 (some centres unmarked) [Example 113, 3-(5-(4-(6-((7^1s,7^3s,E)-1^1,2^6-dimethyl-3-oxo-5^2,5^3-dihydro-1^1H,5^1H-9-oxa-4-aza-5(2,1)-benzo[d]imidazola-2(2,4)-pyridina-1(4,5)-pyrazola-7(1,3)-cyclobutanacyclononaphane-5^6-yl)-2,6-diazaspiro[3.3]heptan-2-yl)piperidin-1-yl)-6-methylpyridin-2-yl)piperidine-2,6-dione]
78.5	93.3	Cc1cc2cc(n1)-c1cnn(C)c1OC[C@H]1C[C@@H](CN3/C(=N/C2=O)Nc2ccc(N4CCC(N5C[C@@H]6C[C@H]5CN6c5ccc(C6CCC(=O)NC6=O)nc5C)CC4)cc23)C1 (stereo partly drawn) [Example 47, 3-(5-((1S,4S)-5-(1-((7^1s,7^3R,E)-1^1,2^6-dimethyl-3-oxo-5^2,5^3-dihydro-1′H,5^1H-9-oxa-4-aza-5(2,1)-benzo[d]imidazola-2(2,4)-pyridina-1(4,5)-pyrazola-7(1,3)-cyclobutanacyclononaphane-5^6-yl)piperidin-4-yl)-2,5-diazabicyclo[2.2.1]heptan-2-yl)-6-methylpyridin-2-yl)piperidine-2,6-dione]
78.4	81.4	Cc1cc2cc(n1)-c1cnn(C)c1OC[C@H]1C[C@@H](CN3/C(=N/C2=O)Nc2ccc(N4CCN(C5CCN(c6cnc(C7CCC(=O)NC7=O)c(F)c6)CC5)CC4)cc23)C1 (single isomer, unassigned) [Example 38, 3-(5-(4-(4-((7^1s,7^3s,E)-1^1,2^6-dimethyl-3-oxo-5^2,5^3-dihydro-1^1H,5^1H-9-oxa-4-aza-5(2,1)-benzo[d]imidazola-2(2,4)-pyridina-1(4,5)-pyrazola-7(1,3)-cyclobutanacyclononaphane-5^6-yl)piperazin-1-yl)piperdine-1-yl)-3-fluoropyridin-2-yl)piperidine 6-dione]

SMILES	Degradation H1975 # 28 DTC [1]	Degradation H1975 # 25-LTC [2]
Cc1cc2cc(n1)-c1cnn(C)c1OC[C@H]1C[C@@H](CN3/C(=N/C2=O)Nc2ccc(N4C5CCC4CN(C4CCN(c6cc(F)c([C@H]7CCC(=O)NC7=O)c(F)c6)CC4)C5)cc23)C1 [Example 128, (3R)-3-(4-(4-(8-((7^1s,7^3s,E)-1^1,2^6-dimethyl-3-oxo-5^2,5^3-dihydro-1^1H,5^1H-9-oxa-4-aza-5(2,1)-benzo[d]imidazola-2(2,4)-pyridina-1(4,5)-pyrazola-7(1,3)-cyclobutanacyclononaphane-5^6-yl)-3,8-diazabicyclo[3.2.1]octan-3-yl)piperidin-1-yl)-2,6-difluorophenyl)piperidine-2,6-dione]	75.7	73.7
